This note sets out measurements from US20250051347A1, “BIFUNCTIONAL CHIMERIC HETEROCYCLIC COMPOUND AND USE THEREOF AS ANDROGEN RECEPTOR DEGRADER” (Hinova Pharmaceuticals, Inc., priority 2021, published 2025).

This test has as its target T1, androgen receptor (AR) splicing variant AR-v7 (Homo sapiens, UniProt P10275).
T1 construct: The degradation activity of compounds on AR-v7 in 22RV1 cells; host or cells: 22RV1 cells
T1 sequence (P10275 1-644 isoform P10275-3): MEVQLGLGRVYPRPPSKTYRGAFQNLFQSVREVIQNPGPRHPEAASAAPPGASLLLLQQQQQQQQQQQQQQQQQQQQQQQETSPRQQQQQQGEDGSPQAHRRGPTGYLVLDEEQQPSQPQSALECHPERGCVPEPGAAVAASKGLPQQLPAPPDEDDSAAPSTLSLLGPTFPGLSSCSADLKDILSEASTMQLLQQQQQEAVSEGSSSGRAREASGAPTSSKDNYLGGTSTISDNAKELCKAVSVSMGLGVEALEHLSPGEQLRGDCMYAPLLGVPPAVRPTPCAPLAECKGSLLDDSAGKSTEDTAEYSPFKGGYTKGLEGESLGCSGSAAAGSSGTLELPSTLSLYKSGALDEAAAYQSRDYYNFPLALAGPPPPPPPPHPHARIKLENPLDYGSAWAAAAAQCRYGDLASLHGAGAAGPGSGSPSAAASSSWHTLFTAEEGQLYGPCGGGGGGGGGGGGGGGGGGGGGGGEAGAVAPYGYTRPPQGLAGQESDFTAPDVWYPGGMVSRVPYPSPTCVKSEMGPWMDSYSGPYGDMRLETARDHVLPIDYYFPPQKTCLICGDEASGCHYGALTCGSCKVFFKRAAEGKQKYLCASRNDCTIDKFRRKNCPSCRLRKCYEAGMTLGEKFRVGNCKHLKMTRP
The test is described as follows: Degradation activity on androgen receptor splicing variant AR-v7 in 22RV1 cells (ELISA). Type of test: cell-based. The following applies: AR-v7 degradation in 22RV1 cells, 48 h. How it is done:
The degradation activity of the compound of the present invention on the androgen receptor splicing variant AR-V7 was analyzed using enzyme-linked immunosorbent assay (ELISA).
The plate was cultured in a 5% CO2 cell incubator at 37° C. for 2 days until the cells adhered to the wall. • 2) The drug was prepared into 10 mM stock solution with dimethylsulfoxide (DMSO). […] The plate was gently shaken and mixed. In addition, negative control wells (only containing culture medium) and positive control wells (only containing cells and DMSO) were set. • 3) After the cells were cultured in an incubator for 48 h, the medium was removed and the cells were rinsed once with ice cold PBS. Then, ice-cold 1× cell lysis buffer was added to each well of the cell culture plate. After the plate was incubated on ice for 15 min, the plate was tapped to mix. • 4) The supernatant of the cell lysate was transferred from the cell culture plate to a […] plate for ELISA. • 5) The newly prepared Capture antibody (green) was mixed with the newly prepared HRP-labeled antibody (red), and then the antibody mixture was added to the above 96-well ELISA plate. • 6) The ELISA plate was sealed with plastic film, and then incubated in a 25° C. incubator for 1 h. • 7) The washing buffer was added to each well, and then TMB substrate was added to each well of the ELISA plate. Subsequently, the plate was cultured in an incubator at 37° C. for 5 min. • 8) 100 μl of stop solution was added to each well of the ELISA plate, and the plate was gently tapped for several seconds. The absorbance was read at 450 nm within 30 min. The data were analyzed by the Dose-response equation in the software GraphPad Prism8, to obtain DC50 and Dmax values.
On the technique in general: An ELISA detects its analyte on a solid surface through an enzyme-linked reagent.

Broadly, the DC50 is the concentration giving 50% degradation. `CC(C)(c1ccc(OCCCOCCCOCCCNc2ccc3c(c2)C(=O)N(C2CCC(=O)NC2=O)C3=O)cc1)c1ccc(OCc2ccnc(NS(C)(=O)=O)n2)cc1` (stereo not drawn) [Example 20, N-(4-((4-(2-(4-(3-(3-(3-((2-(2,6-dioxopiperidin-3-yl)-1,3-dioxoisoindolin-5-yl)amino)propoxy)propoxy)propoxy)phenyl)propan-2-yl)phenoxy)methyl)pyrimidin-2-yl)methanesulfonamide] had a DC50 (class symbols) of 1 to 5 µM. For `CC(C)(c1ccc(OCCCCCCCCOCCCCNc2cccc3c2C(=O)N(C2CCC(=O)NC2=O)C3=O)cc1)c1ccc(OCc2ccnc(NS(C)(=O)=O)n2)cc1` (stereo not drawn) [Example 21, N-(4-((4-(2-(4-((8-(4-((2-(2,6-dioxopiperidin-3-yl)-1,3-dioxoisoindolin-4-yl)amino)butoxy)octyl)oxy)phenyl)propan-2-yl)phenoxy)methyl)pyrimidin-2-yl)methanesulfonamide], the DC50 (numeric values) amounted to 5.77 µM. For `CC(C)(c1ccc(OCCCCCCCCOCCCCNc2ccc3c(c2)C(=O)N(C2CCC(=O)NC2=O)C3=O)cc1)c1ccc(OCc2ccnc(NS(C)(=O)=O)n2)cc1` (stereo not drawn) [Example 22, N-(4-((4-(2-(4-((8-(4-((2-(2,6-dioxopiperidin-3-yl)-1,3-dioxoisoindolin-5-yl)amino)butoxy)octyl)oxy)phenyl)propan-2-yl)phenoxy)methyl)pyrimidin-2-yl)methanesulfonamide], the DC50 (class symbols) lay in the range of 0.101 to 1 µM. Still for that read-out and setting: for `CC(C)(c1ccc(OCCCCCCCOCCCOCCCNc2cccc3c2C(=O)N(C2CCC(=O)NC2=O)C3=O)cc1)c1ccc(OCc2ccnc(NS(C)(=O)=O)n2)cc1` (stereo not drawn) [Example 23] the value was 1 to 5 µM. `CC(C)(c1ccc(OCCCCCCCOCCCOCCCNc2ccc3c(c2)C(=O)N(C2CCC(=O)NC2=O)C3=O)cc1)c1ccc(OCc2ccnc(NS(C)(=O)=O)n2)cc1` (stereo not drawn) [Example 24] showed a DC50 (numeric values) of more than 10 µM. Same read-out and setting: under `CN(c1nccc(COc2ccc(C(C)(C)c3ccc(OCCCCCCCCOCCCCNc4ccc5c(c4)C(=O)N(C4CCC(=O)NC4=O)C5=O)cc3)cc2)n1)S(C)(=O)=O` (stereo not drawn) [Example 25, N-(4-((4-(2-(4-((8-(4-((2-(2,6-dioxopiperidin-3-yl)-1,3-dioxoisoindolin-5-yl)amino)butoxy)octyl)oxy)phenyl)propan-2-yl)phenoxy)methyl)pyrimidin-2-yl)-N-methyl methanesulfonamide] stands more than 10 µM.

For `CC(=O)Nc1nccc(COc2ccc(C(C)(C)c3ccc(OCCCCCCCCOCCCCNc4ccc5c(c4)C(=O)N(C4CCC(=O)NC4=O)C5=O)cc3)cc2)n1` (stereo not drawn) [Example 26, N-(4-((4-(2-(4-((8-(4-((2-(2,6-dioxopiperidin-3-yl)-1,3-dioxoisoindolin-5-yl)amino)butoxy)octyl)oxy)phenyl)propan-2-yl)phenoxy)methyl)pyrimidin-2-yl)acetamide], under “class symbols”, the DC50 was 1 to 5 µM. Consider `CC(C)(c1ccc(OCCCCCCCCOCCCCNc2ccc3c(c2)C(=O)N(C2CCC(=O)NC2=O)C3=O)cc1)c1ccc(OCc2ccnc(N3CCCS3(=O)=O)n2)cc1` (stereo not drawn) [Example 27, 5-((4-((8-(4-(2-(4-((2-(1,1-dioxoisothiazolidin-2-yl)pyrimidin-4-yl)methoxy)phenyl)propan-2-yl)phenoxy)octyl)oxy)butyl)amino)-2-(2,6-dioxopiperidin-3-yl)isoindolin-1,3-dione], for which the DC50 (numeric values) was 7.58 µM. On the same count and under the same terms, under `CC(C)(c1ccc(OCCCCCCCCOCCCCNc2ccc3c(c2)C(=O)N(C2CCC(=O)NC2=O)C3=O)cc1)c1ccc(OCc2ccnc(N)n2)cc1` (stereo not drawn) [Example 28, 5-((4-((8-(4-(2-(4-((2-aminopyrimidin-4-yl)methoxy)phenyl)propan-2-yl)phenoxy)octyl)oxy)butyl)amino)-2-(2,6-dioxopiperidin-3-yl)isoindolin-1,3-dione] stands 5.27 µM; under `CC(C)(c1ccc(OCCCN2CCN(CC3CCN(CCCNc4ccc5c(c4)C(=O)N(C4CCC(=O)NC4=O)C5=O)CC3)CC2)cc1)c1ccc(OCc2ccnc(NS(C)(=O)=O)n2)cc1` (stereo not drawn) [Example 29, N-(4-((4-(2-(4-(3-(4-((1-(3-((2-(2,6-dioxopiperidin-3-yl)-1,3-dioxoisoindolin-5-yl)amino)propyl)piperidin-4-yl)methyl)piperazin-1-yl)propoxy)phenyl)propan-2-yl)phenoxy)methyl)pyrimidin-2-yl)methanesulfonamide], 6.33 µM; under `CC(C)(c1ccc(OCCCCCCCCN2CC3(C2)CN(c2ccc4c(c2)C(=O)N(C2CCC(=O)NC2=O)C4=O)C3)cc1)c1ccc(OCc2ccnc(NS(C)(=O)=O)n2)cc1` (stereo not drawn) [Example 30, N-(4-((4-(2-(4-((8-(6-(2-(2,6-dioxopiperidin-3-yl)-1,3-dioxoisoindolin-5-yl)-2,6-diazaspiro[3.3]heptan-2-yl)octyl)oxy)phenyl)propan-2-yl)phenoxy)methyl)pyrimidin-2-yl)methanesulfonamide], more than 10 µM. On the same count and under the same terms, for `CC(C)(c1ccc(OCCCCCCCCOCCCCNc2ccc3c(c2)C(=O)N(C2CCC(=O)NC2=O)C3=O)cc1)c1ccc(OCc2cncc(NS(C)(=O)=O)n2)cc1` (stereo not drawn) [Example 31, N-(6-((4-(2-(4-((8-(4-((2-(2,6-dioxopiperidin-3-yl)-1,3-dioxoisoindolin-5-yl)amino)butoxy)octyl)oxy)phenyl)propan-2-yl)phenoxy)methyl)pyrazin-2-yl)methanesulfonamide] the value was more than 10 µM. Same read-out and setting: for `CC(C)(c1ccc(OCCCCCCCCOCCCCNc2ccc3c(c2)C(=O)N(C2CCC(=O)NC2=O)C3=O)cc1)c1ccc(OCc2nccc(NS(C)(=O)=O)n2)cc1` (stereo not drawn) [Example 32, N-(2-((4-(2-(4-((8-(4-((2-(2,6-dioxopiperidin-3-yl)-1,3-dioxoisoindolin-5-yl)amino)butoxy)octyl)oxy)phenyl)propan-2-yl)phenoxy)methyl)pyrimidin-4-yl)methanesulfonamide] the value was more than 10 µM. Where the note is “class symbols”, `CC(C)(c1ccc(OCCCCCCCCOCCCCNc2ccc3c(c2)C(=O)N(C2CCC(=O)NC2=O)C3=O)cc1)c1ccc(OCc2cccc(NS(C)(=O)=O)n2)cc1` (stereo not drawn) [Example 33, N-(6-((4-(2-(4-((8-(4-((2-(2,6-dioxopiperidin-3-yl)-1,3-dioxoisoindolin-5-yl)amino)butoxy)octyl)oxy)phenyl)propan-2-yl)phenoxy)methyl)pyridin-2-yl)methanesulfonamide] gave a DC50 of 0.101 to 1 µM. Under “numeric values”, `CC(C)(c1ccc(OCc2ccnc(NS(C)(=O)=O)n2)cc1)c1ccc(OC2CCN(c3ccc4c(c3)C(=O)N(C3CCC(=O)NC3=O)C4=O)CC2)cc1` (stereo not drawn) [Example 34, N-(4-((4-(2-(4-((1-(2-(2,6-dioxopiperidin-3-yl)-1,3-dioxoisoindolin-yl)piperidin-4-yl)oxy)phenyl)propan-2-yl)phenoxy)methyl)pyrimidin-2-yl)methanesulfonamide] had a DC50 of more than 10 µM.

Regarding `CC(C)(c1ccc(OCc2ccnc(NS(C)(=O)=O)n2)cc1)c1ccc(OC2CCN(c3cccc4c3C(=O)N(C3CCC(=O)NC3=O)C4=O)CC2)cc1` (stereo not drawn) [Example 35, N-(4-((4-(2-(4-((1-(2-(2,6-dioxopiperidin-3-yl)-1,3-dioxoisoindolin-4-yl)piperidin-4-yl)oxy)phenyl)propan-2-yl)phenoxy)methyl)pyrimidin-2-yl)methanesulfonamide], the 50% degradation concentration (DC50) (numeric values) is more than 10 µM. The same measure, in the same setting: for `CC(C)(c1ccc(OCc2ccnc(NS(C)(=O)=O)n2)cc1)c1ccc(OC2CCN(CCCCOCCCCNc3ccc4c(c3)C(=O)N(C3CCC(=O)NC3=O)C4=O)CC2)cc1` (stereo not drawn) [Example 36, N-(4-((4-(2-(4-((1-(4-(4-(4-)((2-(2,6-dioxopiperidin-3-yl)-1,3-dioxoisoindolin-5-yl)amino)butoxy)butyl)piperidin-4-yl)oxy)phenyl)propan-2-yl)phenoxy)methyl)pyrimidin-2-yl)methanesulfonamide] the value was more than 10 µM. For `CC(C)(c1ccc(OCCCNc2ccc3c(c2)C(=O)N(C2CCC(=O)NC2=O)C3=O)cc1)c1ccc(OCc2ccnc(NS(C)(=O)=O)n2)cc1` (stereo not drawn) [Example 37, N-(4-((4-(2-(4-(3-((2-(2,6-dioxopiperidin-3-yl)-1,3-dioxoisoindolin-5-yl)amino)propoxy)phenyl)propan-2-yl)phenoxy)methyl)pyrimidin-2-yl)methanesulfonamide], the DC50 (class symbols) fell in the range of 1 to 5 µM.
